Entries after “also recorded” stand apart in the source; their conditions may differ.
Legend:
soybeans 15-LOX = target: T1, soybeans 15-LOX (Glycine max, UniProt P08170); test: 15-lipoxygenase enzyme inhibitory assay (FOX); assay type: biochemical, soybean; conditions: linoleic acid substrate, FOX reagent, 560 nm; read-out: IC50 15-LOX (converted)
T1 construct: purchased Merck, Darmstadt, Germany
T1 sequence (P08170 1-839): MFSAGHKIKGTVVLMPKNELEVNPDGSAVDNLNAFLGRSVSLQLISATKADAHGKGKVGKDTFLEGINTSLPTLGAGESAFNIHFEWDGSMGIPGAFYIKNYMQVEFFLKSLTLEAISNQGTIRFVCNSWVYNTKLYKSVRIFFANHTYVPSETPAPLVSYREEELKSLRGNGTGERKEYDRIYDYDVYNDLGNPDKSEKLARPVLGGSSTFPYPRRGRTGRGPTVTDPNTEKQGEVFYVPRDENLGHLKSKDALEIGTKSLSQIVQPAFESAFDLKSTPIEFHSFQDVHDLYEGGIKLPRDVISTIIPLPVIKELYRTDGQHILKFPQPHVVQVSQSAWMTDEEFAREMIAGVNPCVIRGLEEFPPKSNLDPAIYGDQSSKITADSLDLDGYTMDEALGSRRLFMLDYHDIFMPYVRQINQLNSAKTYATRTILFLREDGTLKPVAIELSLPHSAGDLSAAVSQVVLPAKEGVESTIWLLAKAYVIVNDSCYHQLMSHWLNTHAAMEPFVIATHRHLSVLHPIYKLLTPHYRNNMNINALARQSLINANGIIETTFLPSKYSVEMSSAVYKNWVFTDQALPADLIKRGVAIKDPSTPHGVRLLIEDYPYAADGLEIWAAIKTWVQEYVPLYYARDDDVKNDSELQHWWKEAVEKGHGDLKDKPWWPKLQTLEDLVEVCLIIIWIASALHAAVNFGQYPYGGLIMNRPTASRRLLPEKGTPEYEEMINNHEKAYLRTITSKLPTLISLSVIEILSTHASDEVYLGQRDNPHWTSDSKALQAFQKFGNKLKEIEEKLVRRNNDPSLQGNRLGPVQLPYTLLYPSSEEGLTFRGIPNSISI
Procedure: The method developed by Pinto et al. was used to determine the effect of the tested samples on 15-LOX inhibitory activity, with slight modifications to the 96-well microtitre plate format. Using 20 µL of tested samples at varying concentrations (3.90 to 500 µg/mL), the soybeans 15-LOX (Merck, Darmstadt, Germany) (40 µL, 200 UI/mL) were incubated at 25 °C for 5 min. The plate was then incubated at 25 °C for 20 min in the dark; after, 40 µL of linoleic acid (final concentration, 140 μM) produced in Tris-HCl buffer (50 mM, pH 7.4) was added. A total of 100 µL of the FOX reagent—sulfuric acid (30 mM), xylenol orange (100 μM), and ferrous II) sulfate (100 μM) mixed in methanol/water (9:1)—was added to terminate the test. A SpectraMax iD3 multi-mode microplate reader (Molecular Devices, San Jose, CA, USA) was used to measure the absorbance at 560 nm following 30 min of incubation at 25 °C in the dark. Gallic acid (0.78 to 100 µg/mL) was employed as the usual inhibitor of 15-LOX, while DMSO at 5% (v/v) served as the negative control. With the exception of adding the substrate after the FOX reagent, the blanks were prepared exactly like the tested samples. Formula (2) below was used to compute the 15-LOX inhibitory activity. 15 LOX inhibitory activity (%) = 100 − [(A0 − A1) − (A2 − A1)] × 100(2) where A0 is absorbance of test samples, A1 is absorbance of blank, and A2 is absorbance of negative control (DMSO 5%).
The IC50 values were calculated for each biological experiment using the nonlinear regression curve of the % inhibitory activity versus the logarithm (log10) of the various tested concentrations using GraphPad Prism 6.0 software (GraphPad Software, Inc., San Diego, CA, USA). The data are shown as mean ⁱ SEM (standard error of the mean) values, and all biological experiments were conducted in triplicate (n = 3). The statistical analysis was conducted using GraphPad Prism 6.0 software (GraphPad Software, Inc., San Diego, CA, USA). One-way analysis of variance (ANOVA) was used to compare the data across the tested samples and/or controls, and Student–Newman–Keuls or Dunnett’s tests were then performed. A p-value of less than 0.05 indicated a significant difference in the results.

[1] = design: method as in PMID 12510840, PMID 22997529; conditions: ONOO−, DPPH•, ABTS•+; cited from earlier work
[2] = tested on: LPS-stimulated RAW 264.7 cells; test: ROS production in LPS-stimulated RAW 264.7 cells (DCFH-DA); assay type: cell-based, murine; conditions: 25, 50, 100 µg/mL, 2 h pre-treatment, 200 ng/mL LPS 24 h
Procedure: For ROS production inhibition, on a black/clear bottom 96-well plate, RAW 264.7 cells were seeded at a density of 10,000 cells per well. The cells were then pre-treated with non-toxic quantities of EMME and genistin (5) at 25, 50, and 100 µg/mL for two hours and then exposed to 200 ng/mL of LPS for twenty-four hours under standard culture conditions. Thereafter, the cells were washed twice with PBS, followed by the addition of 100 µL of fresh FBS-free medium containing 10 µM of the fluorescent probe 2′,7′-dichlorodihydrofluorescein diacetate (DCFH-DA) (Sigma-Aldrich, Darmstadt, Germany). After 30 min of additional incubation under usual culture conditions, PBS was added to the plate in place of the fluorescent probe. The fluorescence of the cells was measured using a SpectraMax iD3 multi-mode microplate reader (Molecular Devices, San Jose, CA, USA) at 485 nm (excitation) and 535 nm (emission). The percentage of cells treated with DMSO 0.5% without LPS, known as the negative control, was used to express the intracellular ROS levels. Using an excitation/emission filter (480/535 nm) on a 40× objective, images were taken with a camera (Flexacam C1, Leica Microsystems, Wetzlar, Germany) attached to a fluorescence microscope (Leica Microsytems GmbH, Wetzlar, Germany).

[3] = tested on: LPS-induced NO production; design: method as in PMID 20183278, PMID 27087823, PMID 32253713; conditions: cited from earlier work

SMILES	IC50 (soybeans 15-LOX) [µM]	other results
CC[C@H](/C=C/[C@@H](C)[C@H]1CC[C@H]2[C@@H]3CC=C4C[C@@H](O[C@@H]5O[C@H](CO)[C@@H](O)[C@H](O)[C@H]5O)CC[C@]4(C)[C@H]3CC[C@]12C)C(C)C [Compound 7, stigmasterol glucoside]	> 348	
CCCCCCCCCCCCCCCC [Compound 1, n-hexadecane]	> 883	
CO[C@H]1[C@H](O)[C@@H](O)[C@@H](O)[C@H](O)[C@@H]1O [Compound 6, D-pinitol]	> 1030	
O=c1c2c(O)cc(O)cc2oc2oc3cc(O)ccc3c12 [Compound 4, lupinalbin A]	> 704	
CCCCCCCCCCCCCCCCCCCCCCCO [Compound 3, tricosan-1-ol]	> 587	
O=c1c(-c2ccc(O)cc2)coc2cc(O[C@@H]3O[C@H](CO)[C@@H](O)[C@H](O)[C@H]3O)cc(O)c12 [Compound 5, genistin]	414	Antioxidant properties via scavenging activity [1]: moderate antioxidant properties; Inhibition of LPS-induced ROS production [2]: markedly and dose-dependently reduced; Inhibition of LPS-induced ROS production ([2]; listed as Genistin (5)): able to inhibit; Inhibition of LPS-induced ROS production ([2]; listed as genistin (5)): moderate activity; also recorded: moderately effective; Effect on LPS-induced NO production [3]: decreases LPS-induced NO production

— PMC11678782, “The Antioxidant and Anti-Inflammatory Activities of the Methanolic Extract, Fractions, and Isolated Compounds from Eriosema montanum Baker f. (Fabaceae)” (Molecules, 2024)
